Data reported in patent US7192953B2, “Antibacterial agents” (Vernalis (Oxford) Limited, priority 2002, dated 2007).
In brackets after ≈: the same amount, converted by molar mass.

Experiments:
Format in all cases: cell-based
S. pneumoniae = assay: MIC by agar plate dilution against clinical isolates of S. pneumoniae; settings: 6 strains of S. pneumoniae (clinical isolates), 18 to 24 hr, 35° C; for MIC: Streptococcus pneumoniae, read-out: MIC or MIC range, S. pneumoniae
Procedure: (§1) Minimal Inhibitory concentrations (MIC) of inhibitors against clinical isolates of S. pneumoniae, H. influenzae and M. catarrhalis obtained from the Public Health and Clinical Microbiology Laboratory, Addenbrooke's Hospital, Hills Road, Cambridge CB2 2QW, UK, were determined by a standard agar plate dilution method following recommended in British Society for Antimicrobial Chemotherapy Working Party. 1991. “A guide to sensitivity testing British Society for Antimicrobial Chemotherapy, London, United Kingdom”. Briefly Iso-Sensitest agar (pH 7.2: Oxoid, United Kingdom) was employed supplemented with 5% horse blood (Oxoid) and 20 μg of NAD (Sigma) per ml to support growth of fastidious bacteria. The inoculum used was approximately 10^4 colony forming units of each isolate contained in a volume of 1 μl. Plates were incubated 18 to 24 hr in air, or for fastidious bacteria an atmosphere enriched with 4–6% carbon dioxide at 35° C. The MIC was determined as the lowest concentration of an antimicrobial tested that inhibited growth of the inoculum, disregarding a single persisting colony or faint haze caused by the inoculation.
(§2) The compounds of the Examples were are antibacterially active in the above assays, The following table states the MICs or MIC ranges of the tested compounds against 6 strains of S. pneumoniae, 4 strains of H. influenzae and 3 strains of M. catarrhalis.

H. influenzae = assay: MIC by agar plate dilution against clinical isolates of H. influenzae; settings: 4 strains of H. influenzae (clinical isolates), 18 to 24 hr, 35° C; for MIC: Haemophilus influenzae, read-out: MIC or MIC range, H. Influenzae
Procedure: as §1, §2

M. catarrhalis = assay: MIC by agar plate dilution against clinical isolates of M. catarrhalis; settings: 3 strains of M. catarrhalis (clinical isolates), 18 to 24 hr, 35° C; for MIC: Moraxella catarrhalis, read-out: MIC or MIC range, M. catarrhalis
Procedure: as §1, §2

| Structure (SMILES) | MIC (S. pneumoniae) [µg/mL] | MIC (H. influenzae) [µg/mL] | MIC (M. catarrhalis) [µg/mL] | MIC or MIC range, S. pneumoniae (S. pneumoniae) [µg/mL] | MIC or MIC range, M. catarrhalis (M. catarrhalis) [µg/mL] | MIC or MIC range, H. Influenzae (H. influenzae) [µg/mL] |
| --- | --- | --- | --- | --- | --- | --- |
| COCC(=O)N1CCCCN1C(=O)[C@H](CC1CCCC1)CN(O)C=O [Example 2, N-{(2R)-Cyclopentylmethyl-3-[2-(2-methoxyacetyl)tetrahydropyridazin-1-yl]-3-oxo-propyl}-N-hydroxyformamide] | 1 to 8 (≈ 2.81 to 22.5 µM) | 0.25 to 8 (≈ 0.703 to 22.5 µM) | 0.25 (≈ 0.703 µM) | – | – | – |
| O=CN(O)C[C@@H](CC1CCCC1)C(=O)N1CCCCN1C(=O)c1ccccc1 [Example 3, N-{(2R)-Cyclopentylmethyl-3-[2-benzoyl-tetrahydropyridazin-1-yl]-3-oxo-propyl}-N-hydroxyformamide] | 0.5 to 2 (≈ 1.29 to 5.16 µM) | 1 to 4 (≈ 2.58 to 10.3 µM) | 0.125 (≈ 0.323 µM) | – | – | – |
| O=CN(O)C[C@@H](CC1CCCC1)C(=O)N1CCCCN1C(=O)c1ccc(C(F)(F)F)cc1 [Example 4, N-{(2R)-Cyclopentylmethyl-3-[2-(4-trifluoromethylbenzoyl)-tetrahydropyridazin-1-yl]-3-oxo-propyl}-N-hydroxyformamide] | 0.5 to 4 (≈ 1.1 to 8.78 µM) | – | 0.5 (≈ 1.1 µM) | – | – | – |
| O=CN(O)C[C@@H](CC1CCCC1)C(=O)N1CCCCN1C(=O)c1ccncc1 [Example 5, N-{(2R)-Cyclopentylmethyl-3-[2-(pyridine-4-Carbonyl)-tetrahydropyridazin-1-yl]-3-oxo-propyl}-N-hydroxyformamide] | 2 to 16 (≈ 5.15 to 41.2 µM) | – | 0.25 (≈ 0.644 µM) | – | – | – |
| O=CN(O)C[C@@H](CC1CCCC1)C(=O)N1CCCCN1C(=O)C1CCCCC1 [Example 6, N-{(2R)-Cyclopentylmethyl-3-[2-Cyclohexanecarbonyl-tetrahydropyridazin-1-yl]-3-oxo-propyl}-N-hydroxyformamide] | 0.5 to 2 (≈ 1.27 to 5.08 µM) | 4 to 8 (≈ 10.2 to 20.3 µM) | 0.06 (≈ 0.152 µM) | – | – | – |
| COc1ccc(C(=O)N2CCCCN2C(=O)[C@H](CC2CCCC2)CN(O)C=O)cc1 [Example 7, N-{(2R)-Cyclopentylmethyl-3-[2-(4-methoxybenzoyl)-tetrahydropyridazin-1-yl]-3-oxo-propyl}-N-hydroxyformamide] | 0.5 to 4 (≈ 1.2 to 9.58 µM) | – | 0.5 (≈ 1.2 µM) | – | – | – |
| O=CN(O)C[C@@H](CC1CCCC1)C(=O)N1CCCCN1C(=O)c1ccc2c(c1)OCO2 [Example 8, N-{(2R)-Cyclopentylmethyl-3-[2-(benzo[1,3]dioxole-5carbonyl)-tetrahydropyridazin-1-yl]-3-oxo-propyl}-N-hydroxyformamide] | 0.5 to 4 (≈ 1.16 to 9.27 µM) | 1 to 8 (≈ 2.32 to 18.5 µM) | 0.5 (≈ 1.16 µM) | – | – | – |
| O=CN(O)C[C@@H](CC1CCCC1)C(=O)N1CCCCN1C(=O)c1ccoc1 [Example 9, N-{(2R)-Cyclopentylmethyl-3-[2-(furan-3-Carbonyl)-tetrahydropyridazin-1-yl]-3-oxo-propyl}-N-hydroxyformamide] | 0.5 to 2 (≈ 1.32 to 5.3 µM) | 0.125 to 8 (≈ 0.331 to 21.2 µM) | < 0.93 | – | – | – |
| O=CN(O)C[C@@H](CC1CCCC1)C(=O)N1CCCCN1C(=O)c1ccc(F)cc1 [Example 10, N-{(2R)-Cyclopentylmethyl-3-[2-(4-fluorobenzoyl)-tetrahydropyridazin-1-yl]-3-oxo-propyl}-N-hydroxyformamide] | 0.5 to 4 (≈ 1.23 to 9.87 µM) | 0.5 to 2 (≈ 1.23 to 4.93 µM) | 0.5 (≈ 1.23 µM) | – | – | – |
| O=CN(O)C[C@@H](CC1CCCC1)C(=O)N1CCCCN1C(=O)Cc1ccccc1 [Example 11, N-{(2R)-Cyclopentylmethyl-3-[2-phenylacetyl-tetrahydropyridazin-1-yl]-3-oxo-propyl}-N-hydroxyformamide] | 0.5 to 4 (≈ 1.25 to 9.96 µM) | 0.25 to 2 (≈ 0.623 to 4.98 µM) | 0.25 (≈ 0.623 µM) | – | – | – |
| O=CN(O)C[C@@H](CC1CCCC1)C(=O)N1CCCCN1C(=O)c1ccc(N2CCOCC2)nc1 [Example 12, N-{(2R)-Cyclopentylmethyl-3-[2-(6-morpholin-4-yl-pyridine-3-Carbonyl)-tetrahydropyridazin-1-yl]-3-oxo-propyl}N-hydroxyformamide] | 2 to 16 (≈ 4.22 to 33.8 µM) | 16 to 32 (≈ 33.8 to 67.6 µM) | 1 (≈ 2.11 µM) | – | – | – |
| O=CN(O)C[C@@H](CC1CCCC1)C(=O)N1CCCCN1C(=O)Nc1cc(C(F)(F)F)cc(C(F)(F)F)c1 [Example 13, 2-[(2R)-Cyclopentylmethyl-3-(formylhydroxyamino)-propionyl]-tetrahydropyridazine-1-Carboxylic acid (3,5-bis-(trifluoromethyl)phenyl)amide] | – | – | – | 8 to 16 | 2 (≈ 3.71 µM) | – |
| O=CN(O)C[C@@H](CC1CCCC1)C(=O)N1CCCCN1C(=O)Nc1ccccc1 [Example 14, 2-[(2R)-Cyclopentylmethyl-3-(formylhydroxyamino)-propionyl]-tetrahydropyridazine-1-Carboxylic acid phenylamide] | 2 to 4 (≈ 4.97 to 9.94 µM) | 0.125 to 4 (≈ 0.311 to 9.94 µM) | < 0.125 | – | – | – |
| COc1cccc(NC(=O)N2CCCCN2C(=O)[C@H](CC2CCCC2)CN(O)C=O)c1 [Example 15, 2-[(2R)-Cyclopentylmethyl-3-(formylhydroxyamino)-propionyl]-tetrahydropyridazine-1-Carboxylic acid (3-methoxyphenyl)amide] | 2 to 4 (≈ 4.62 to 9.25 µM) | 0.125 to 4 (≈ 0.289 to 9.25 µM) | < 0.125 | – | – | – |
| O=CN(O)C[C@@H](CC1CCCC1)C(=O)N1CCCCN1C(=O)Nc1ccc(F)cc1 [Example 16, 2-[(2R)-Cyclopentylmethyl-3-(formylhydroxyamino)propionyl]-tetrahydropyridazine-1-Carboxylic acid (4-fluorophenyl)amide] | 4 to 8 (≈ 9.51 to 19 µM) | 0.125 to 4 (≈ 0.297 to 9.51 µM) | < 0.125 | – | – | – |
| O=CN(O)C[C@@H](CC1CCCC1)C(=O)N1CCCCN1C(=O)Nc1ccc(F)cc1F [Example 17, 2-[(2R)-Cyclopentylmethyl-3-(formylhydroxyamino)-propionyl]-tetrahydropyridazine-1-Carboxylic acid (2,4-bis(fluoro)phenyl)amide] | 4 to 8 (≈ 9.12 to 18.2 µM) | 0.125 (≈ 0.285 µM) | < 0.125 | – | – | – |
| O=CN(O)C[C@@H](CC1CCCC1)C(=O)N1CCCCN1C(=O)Nc1ccc(C(F)(F)F)cc1 [Example 18, 2-[(2R)-Cyclopentylmethyl-3-(formylhydroxyamino)-propionyl]-tetrahydropyridazine-1-Carboxylic acid (4-trifluoromethylphenyl)amide] | 4 (≈ 8.5 µM) | 0.25 to 16 (≈ 0.531 to 34 µM) | < 0.125 | – | – | – |
| O=CN(O)C[C@@H](CC1CCCC1)C(=O)N1CCCCN1C(=O)Nc1ccc2c(c1)OCCO2 [Example 19, 2-[(2R)-Cyclopentylmethyl-3-(formylhydroxyamino)-propionyl]-tetrahydropyridazine-1-Carboxylic acid (2,3,4a,8a-tetrahydrobenzo[1,4]dioxin-6-yl)amide] | 2 to 4 (≈ 4.34 to 8.69 µM) | 0.125 to 4 (≈ 0.271 to 8.69 µM) | < 0.125 | – | – | – |
| COc1ccccc1NC(=O)N1CCCCN1C(=O)[C@H](CC1CCCC1)CN(O)C=O [Example 20, 2-[(2R)-Cyclopentylmethyl-3-(formylhydroxyamino)-propionyl]-tetrahydropyridazine-1-Carboxylic acid (2-methoxyphenyl)amide] | 4 to 8 (≈ 9.25 to 18.5 µM) | 0.5 to 2 (≈ 1.16 to 4.62 µM) | < 0.03 | – | – | – |
| O=CN(O)C[C@@H](CC1CCCC1)C(=O)N1CCCCN1C(=O)N1CCC(Cc2ccccc2)CC1 [Example 22, N-{(2R)-Cyclopentylmethyl-3-[2-(4-benzylpiperidine-1-Carbonyl)-tetrahydropyridazin-1-yl]-3-oxo-propyl}-N-hydroxyformamide] | 4 to 16 (≈ 8.25 to 33 µM) | – | 2 (≈ 4.13 µM) | – | – | – |
| O=CN(O)C[C@@H](CC1CCCC1)C(=O)N1CCCN1C(=O)c1ccncc1 [Example 30, N-{(2R)-Cyclopentylmethyl-3-[2-(pyridine-4-Carbonyl)-pyrazolidin-1-yl]-3-oxo-propyl}-N-hydroxyformamide] | 16 to 32 (≈ 42.7 to 85.5 µM) | – | 0.125 (≈ 0.334 µM) | – | – | – |
| O=CN(O)C[C@@H](CC1CCCC1)C(=O)N1CCCN1C(=O)c1ccoc1 [Example 37, N-{(2R)-Cyclopentylmethyl-3-[2-(furan-3-Carbonyl)-pyrazolidin-1-yl]-3-oxo-propyl}-N-hydroxyformamide] | 4 (≈ 11 µM) | – | 0.06 (≈ 0.165 µM) | – | – | – |
| O=CN(O)C[C@@H](CC1CCCC1)C(=O)N1CCCN1C(=O)Nc1ccc(C(F)(F)F)cc1 [Example 42, 2-[(2R)-Cyclopentylmethyl-3-(formylhydroxyamino)-propionyl]-pyrazolidine-1-Carboxylic acid (4-trifluoromethylphenyl)amide] | 2 to 8 (≈ 4.38 to 17.5 µM) | 2 to 8 (≈ 4.38 to 17.5 µM) | – | – | – | – |
| CN(C(=O)N1CCCN1C(=O)[C@H](CC1CCCC1)CN(O)C=O)c1ccccc1 [Example 43, 2-[(2R)-Cyclopentylmethyl-3-(formylhydroxyamino)-propionyl]-pyrazolidine-1-Carboxylic acid methylphenylamide] | – | – | – | – | 8 (≈ 19.9 µM) | 16 to 32 |
| O=C(C[C@@H](CC1CCCC1)C(=O)N1CCCCN1C(=O)Nc1ccccc1)NO [Example 45, 2-[(2R)-Cyclopentylmethyl-3-hydroxycarbamoylpropionyl]-tetrahydropyridazine-1-Carboxylic acid phenylamide] | – | – | – | 4 to 8 | – | 1 to 4 |
